Test results from patent US8772268B2, “Bisphosphonamidate prodrugs and uses thereof” (The Johns Hopkins University, priority 2010, dated 2014).
Values joined by “and” are separate entries in the source; they are usually repeats but may differ in a detail not shown here. Identical values can stand only once. Like-named read-outs stand apart in the source and are kept apart here.

Columns and labels:
[1] = system: A549 NSCLC cells; test: MTS cell proliferation assay, A549; format: cell-based; conditions: for growth inhibitory effect against A549 cells: concentrations up to 1 mM; for EC50: Homo sapiens, A549 (NSCLC), MTS, table of Example 3; for IC50: A549, MTS, read-out: IC50 (decreased cell proliferation by 50% compared to control)
Experimental: Cell proliferation was determined using the CellTiter 96 Aqueous One Solution Cell Proliferation Assay MTS assay. A549 NSCLC cells were plated at 1.5×10^3 cells per well in flat bottom 96 well plates in 99 μL of media and allowed to adhere overnight. The drugs were serially diluted in 100% DMSO. For each drug treatment group, 1 μL of a 100× stock solution was added to each well for a final DMSO concentration of 1%. Cells were treated for 24, 48 or 72 hours. Cells were incubated with MTS dye (20 μL well^−1) for 40 min to 2 h. Absorbance at 490 nm was determined using a SpectraMax M2 (Molecular Devices) plate reader. The percent cell proliferation was calculated by converting the experimental absorbance to percentage of control, which was then plotted vs. drug concentration. The IC50 values were determined using a non-linear dose-response analysis in GraphPad Prism version 4.0. The IC50 is defined as the concentration of drug needed to cause a 50% decrease in proliferation compared to vehicle control. […]

[2] = system: P. falciparum (NF54); test: Antimalarial [3H]-hypoxanthine incorporation assay; format: cell-based, Plasmodium falciparum
Experimental: Plasmodium falciparum culture. NF54 P. falciparum parasites were maintained in O+ positive erythrocytes (obtained weekly from a rotating pool of screened healthy donors) in complete medium containing RPMI (Sigma), 25 mM N-2-hydroxyethylpiperazine-N′-2-ethanesulfonic acid (HEPES; Sigma), 27 mM sodium bicarbonate (Sigma) and 10% heat-inactivated male O+ serum in non-vented flasks. Hematocrit was maintained at 2.4%. Flasks were gassed with a mixture of 3% oxygen, 4% carbon dioxide, 93% nitrogen. Parasitemia was maintained at 0.1-5% by changing medium and erythrocytes two to three times a week.
Antimalarial activity was measured using a [^3H]-hypoxanthine incorporation assay as described previously (Desjardins et al., Antimicrob. Agents Chemother., vol. 16, p. 710, 1979; Milhous et al., Antimicrob. Agents Chemother., vol. 27, np. 525, 1985). […] For surveys, each concentration was assayed in triplicate while in expansions, each concentration was assayed in quadruplicate. To each well, 0.64 μCi of [^3H]-hypoxanthine (10-30 Ci/mmol; Perkin Elmer) was added and the plate was incubated for an additional 20 to 24 h. Samples from each well were harvested on filter paper and tritium counts were measured on the Beckmann Coulter LS6500 scintillation counter. […] Values considered as outliers according to Chauvenet's criterion were discarded and dropped from analysis. One survey and at least one expansion was performed for each compound.

[3] = system: A549 NSCLC cells; test: Activity of other esters against NSCLC (FIG. 13A-D); format: cell-based; conditions: Homo sapiens
Experimental: Cells were dosed as described above. […] The results shown in FIG. 13 are from a single experiment only.
Results are shown in FIG. 13 and in the table below

[4] = system: breast and ovarian cancers; conditions: cited from earlier work
[5] = system: PIP3 (prostate) cancer cell line; test: MTS cell proliferation assay, PIP3; format: cell-based
Experimental: (§1) Cell proliferation was determined using the CellTiter 96 Aqueous One Solution Cell Proliferation Assay MTS assay. A549 NSCLC cells were plated at 1.5×10^3 cells per well in flat bottom 96 well plates in 99 μL of media and allowed to adhere overnight. The drugs were serially diluted in 100% DMSO. For each drug treatment group, 1 μL of a 100× stock solution was added to each well for a final DMSO concentration of 1%. Cells were treated for 24, 48 or 72 hours. Cells were incubated with MTS dye (20 μL well^−1) for 40 min to 2 h. Absorbance at 490 nm was determined using a SpectraMax M2 (Molecular Devices) plate reader. The percent cell proliferation was calculated by converting the experimental absorbance to percentage of control, which was then plotted vs. drug concentration. The IC50 values were determined using a non-linear dose-response analysis in GraphPad Prism version 4.0. The IC50 is defined as the concentration of drug needed to cause a 50% decrease in proliferation compared to vehicle control.
(§2) The activity of Clodronate prodrug (14) was tested against other cell lines, include prostate (PIP3) and breast (MDA-MB-453) cancer cells lines. Cell proliferation was determined using the CellTiter 96 Aqueous One Solution Cell Proliferation Assay MTS assay as discussed above. Results are shown in FIG. 22 and in the table below.

[6] = system: L1210; test: Cytotoxicity, L1210; format: cell-based
[7] = system: lung cancer cell lines; conditions: cited from earlier work
[8] = system: MDA-MB-453 (breast) cancer cell line; test: MTS cell proliferation assay, MDA-MB-453; format: cell-based; conditions: Homo sapiens
Experimental: as §1, §2

[9] = system: A549 NSCLC cells; test: Trypan blue cell count assay, A549; conditions: for EC50: read-out: EC50 (decreased cell number by 50% compared to control)
Experimental: A549 NSCLC cells were plated at 1.7×10^4 cells per well in flat bottom 12-well plates. Cells were dosed as described above. At 24, 48 or 72 hours following drug treatment, the media was collected, and the cells were washed with 200 μL PBS. Each well was trypsinized with 200 μL trypsin for 3-5 min. The trypsin reaction was quenched with an equal volume of media. All supernatants and washes were combined and spun at 1,500 rpm for 5 min. Supernatant was decanted, and the cells were resuspended in 200 μL media. The cells were diluted 1:1 in 0.04% trypan blue and counted using a cytometer. The absolute number of cells was determined at each drug concentration. The cell number for each concentration was converted to percent of control for each time point, and plotted using GraphPad Prism 4.0. The EC50 was calculated as the concentration of drug that caused a 50% decrease in number of cells compared to control.
The number of viable cells at each dose was determined at 0, 24, 48 and 72 hours following drug treatment and plotted as a percent of control (FIG. 6A).

[10] = system: several cancer cell lines; conditions: cited from earlier work
[11] = system: H358; test: Cyclized zoledronate intermediate vs zoledronic acid, normoxia/hypoxia, H358; format: cell-based; conditions: Homo sapiens
[12] = system: A549; test: Cyclized zoledronate intermediate vs zoledronic acid, normoxia/hypoxia, A549; format: cell-based; conditions: Homo sapiens
[13] = Plasmodium falciparum, P. falciparum (NF54), read-out: IC50
[14] = A549, 24 h, single experiment, read-out: IC50 24 h
[15] = A549, 48 h, single experiment, read-out: IC50 48 h
[16] = A549, 72 h, single experiment, read-out: IC50 72 h

Question: With O=P(O)(O)CP(=O)(O)O [Bisphosphonate, reference compound] as the compound, how does the “growth inhibitory effect against A549 cells” value (“growth inhibitory effect” for short) [1] read?
Answer: The value was “minimal activity”.

Question: For CN(CCCCCl)P(=O)(OCc1ccccc1)C(Cl)(Cl)P(=O)(OCc1ccccc1)N(C)CCCCCl (stereo not drawn) [Chlorobenzyl analog], which IC50 ([2]; Plasmodium falciparum, NF54) is on record?
Answer: Its IC50 is 5.9 µM.

Question: And the IC50 ([3]; A549, 24 h, read-out: IC50 24 h)?
Answer: The IC50 was 18.9 µM.

Question: What about the IC50 ([3]; A549, 48 h, read-out: IC50 48 h) of the same compound?
Answer: The IC50 was 11.9 µM.

Question: And the IC50 ([3]; A549, 72 h, read-out: IC50 72 h)?
Answer: Its IC50 is 11.6 µM.

Question: With O=P(O)(O)C(Cl)(Cl)P(=O)(O)O [Clodronate, clodronate, reference compound] as the compound, how does the growth inhibition [4] read?
Answer: The growth inhibition was “high micromolar or low millimolar range”.

Question: And the IC50 [2, 13]?
Answer: Its IC50 is 750 µM.

Question: What about the EC50 [5] of the same compound?
Answer: The EC50 was greater than 1000 µM.

Question: And the IC50 ([6]; Mus musculus)?
Answer: The IC50 was 830 µM.

Question: What about the EC50 [1] of the same compound?
Answer: The EC50 was greater than 1000 µM.

Question: What about the “growth inhibitory effect” value [1] of the same compound?
Answer: The value was “minimal activity”.

Question: What about the “growth inhibitory effect” value ([1]; listed as clodronate) of the same compound?
Answer: Its value is “does not exhibit a detectable growth inhibitory effect”.

Question: What about the “activity against lung cancer cell lines” value [7] of the same compound?
Answer: The value was “minimal activity”.

Question: And the EC50 [8]?
Answer: The EC50 was greater than 1000 µM.

Question: For CN(CCCCCl)P(=O)(CP(=O)(OCc1ccccc1)N(C)CCCCCl)OCc1ccccc1 (stereo not drawn) [Deschlorobenzyl Analog], which IC50 [3, 14] is on record?
Answer: The IC50 was 21.6 µM.

Question: And the IC50 [3, 15]?
Answer: Its IC50 is 12.8 µM.

Question: What about the IC50 [3, 16] of the same compound?
Answer: The IC50 was 7.8 µM.

Question: With CCN(CC)P(=O)(OCc1ccc([N+](=O)[O-])cc1)C(Cl)(Cl)P(=O)(OCc1ccc([N+](=O)[O-])cc1)N(CC)CC (stereo not drawn) [Diethylamine Analog] as the compound, how does the IC50 [2, 13] read?
Answer: Its IC50 is 3.3 µM.

Question: Which IC50 [2, 13] does the source give for COP(=O)(N(C)CCCCCl)C(Cl)(Cl)P(=O)(OC)N(C)CCCCCl (stereo not drawn) [Methoxy analog] here?
Answer: The IC50 was 22 µM.

Question: And the IC50 [3, 14]?
Answer: The IC50 was 93.4 µM.

Question: And the IC50 [3, 15]?
Answer: Its IC50 is 100 µM.

Question: What about the IC50 [3, 16] of the same compound?
Answer: The IC50 was 76.3 µM.

Question: With CN(CCCCCl)P(=O)(OCCc1ccc([N+](=O)[O-])cc1)C(Cl)(Cl)P(=O)(OCCc1ccc([N+](=O)[O-])cc1)N(C)CCCCCl (stereo not drawn) [Nitrophenethyl analog] as the compound, how does the IC50 [2, 13] read?
Answer: Its IC50 is 0.97 ± 0.21 µM.

Question: And the EC50 ([9]; Homo sapiens, A549, 24 h)?
Answer: The EC50 was roughly 10 µM.

Question: What about the EC50 ([9]; Homo sapiens, A549, 48 h) of the same compound?
Answer: Its EC50 is 3.5 µM.

Question: What about the EC50 ([9]; Homo sapiens, A549, 72 h) of the same compound?
Answer: The EC50 was 4.2 µM.

Question: And the IC50 [3, 14]?
Answer: Its IC50 is 4.8 µM.

Question: And the IC50 [3, 15]?
Answer: The IC50 was 3.1 µM.

Question: And the IC50 [3, 16]?
Answer: Its IC50 is 2.1 µM.

Question: Which EC50 [5] does the source give for O=P(O)(O)C(O)(Cn1ccnc1)P(=O)(O)O [Zoledronate, zoledronate] here?
Answer: Its EC50 is 78 µM.

Question: And the EC50 [1]?
Answer: The EC50 was 58 µM.

Question: And the IC50 [10]?
Answer: Its IC50 is no less than 3 µM.

Question: What about the IC50 ([11]; NCI-H358, 48 h, H358, 48 hrs, Hypoxia) of the same compound?
Answer: The IC50 was 87 µM.

Question: And the IC50 ([11]; NCI-H358, 48 h, H358, 48 hrs, Normoxia)?
Answer: Its IC50 is 59 µM.

Question: What about the IC50 ([11]; NCI-H358, 72 h, H358, 72 hrs, Hypoxia) of the same compound?
Answer: Its IC50 is 135 µM.

Question: And the IC50 ([11]; NCI-H358, 72 h, H358, 72 hrs, Normoxia)?
Answer: Its IC50 is 15 µM.

Question: What about the IC50 ([12]; A549, 48 h, Hypoxia) of the same compound?
Answer: The IC50 was 350 µM.

Question: What about the IC50 ([12]; A549, 48 h, Normoxia) of the same compound?
Answer: Its IC50 is 98 µM.

Question: What about the IC50 ([12]; A549, 72 h, Hypoxia) of the same compound?
Answer: Its IC50 is 205 µM.

Question: What about the IC50 ([12]; A549, 72 h, Normoxia) of the same compound?
Answer: The IC50 was 45 µM.

Question: What about the EC50 [8] of the same compound?
Answer: The EC50 was 191 µM.

Question: With CN(CCCCCl)P(=O)(CP(=O)(OCc1ccc([N+](=O)[O-])cc1)N(C)CCCCCl)OCc1ccc([N+](=O)[O-])cc1 (stereo not drawn) [compound 13] as the compound, how does the IC50 ([2]; P. falciparum (NF54), read-out: IC50) read?
Answer: Its IC50 is 5.2 ± 0.21 µM.

Question: What about the IC50 [6] of the same compound?
Answer: Its IC50 is 27 µM.

Question: What about the “EC50 (trypan blue) fold higher than IC50 (MTS)” value ([9]; A549, 48 h) of the same compound?
Answer: The value was roughly 3.6 fold.

Question: What about the EC50 ([9]; A549, trypan blue, 48 h) of the same compound?
Answer: The EC50 was 24 ± 4 µM.

Question: What about the EC50 ([9]; A549, trypan blue, 72 h) of the same compound?
Answer: The EC50 was 25 ± 4 µM.

Question: What about the EC50 ([9]; A549, trypan blue, 72 h, listed as Bisphosphonate Prodrug) of the same compound?
Answer: Its EC50 is 24 ± 4 µM.

Question: And the IC50 ([1]; 24 h)?
Answer: The IC50 was 17 ± 4 µM.

Question: What about the IC50 ([1]; 48 h) of the same compound?
Answer: The IC50 was 15.2 µM and 15 µM.

Question: And the IC50 ([1]; 72 h)?
Answer: Its IC50 is 13 ± 1 µM.

Question: What about the “decrease in IC50 of 13 compared to 14” value ([1]; A549 cells) of the same compound?
Answer: Its value is 3 fold.
